This is an account of results in patent US11571458B2, “Bacteriocins to improve vaginal colonization of hydrogen peroxide producing lactobacillus for female reproductive health” (Osel, Inc., priority 2018, dated 2023).

The subject of experiment [1] is L. iners HM-702. As to the kind of experiment: combined use of K7 bacteriocins and metronidazole, OD 600 nm. To be noted: 48 hours; K7 bacteriocin 80 BU/mL, metronidazole 42 μg/mL. The class given is cell-based, Lactobacillus iners. The protocol: (§1) The effectiveness of the combined use of the K7 bacteriocins and metronidazole was tested against L. iners and G. vaginalis in vitro. Cultures of L. iners HM-702 and G. vaginalis HM-133, L. iners+G. vaginalis co-cultures, and L. crispatus SJ-3C were obtained as described previously in Example 1. Overnight cultures of L. iners, G. vaginalis, and L. crispatus were diluted in fresh growth media to concentrations of approximately 10^5 CFU/mL to be tested against K7 bacteriocin (from Example 1), metronidazole (Sigma-Aldrich, USA), and K7 bacteriocin+metronidazole (combined). To each culture of L. iners, G. vaginalis, the L. iners+G. vaginalis co-culture, and L. crispatus was added semi-purified K7 bacteriocin (80 BU/mL, quantified using L. iners as indicator), metronidazole (42 μg/mL), or the K7 bacteriocin+metronidazole combination, and incubated anaerobically at 37° C. for 48 hours. As controls, L. iners, G. vaginalis, the L. iners+G. vaginalis, and L. crispatus were incubated alone with conditioned media for 48 hours as well.

Experiment [2] deals with G. vaginalis HM-133. The experiment is described as above. The class given is cell-based, Gardnerella vaginalis. Particulars: 48 hours; K7 bacteriocin 80 BU/mL, metronidazole 42 μg/mL. As for the experimental part:
as §1

In experiment [3] the test system is L. crispatus SJ-3C. Described as above. To be noted: 48 hours; K7 bacteriocin 80 BU/mL, metronidazole 42 μg/mL. Format: cell-based, Lactobacillus crispatus. As for the experimental part:
as §1

In experiment [4] the test system is Lactobacillus sakei subsp. sakei ATCC 15521. Nature of the experiment: critical dilution assay (bacteriocin activity / MIC). Format: cell-based. Particulars: ratio of peptides about 1:1 (w/w).
The test system of experiment [5] is Lactobacillus iners. The description is as above. Particulars: for L. iners HM-702 MIC: ratio of peptides about 1:1 (w/w); for anti-L. iners activity of purified chromatography fraction: reverse phase fractions identified by MALDI-TOF; for L. iners HM-702 MIC / MIC against L. iners: L. iners HM-702; for MIC against L. iners: molar value given in brackets. Format: cell-based.

Take `Cc1ncc([N+](=O)[O-])n1CCO` [metronidazole]: the “sensitivity of L. iners (OD 600 nm)” value in experiment [1] is “not sensitive”. Also, the “sensitivity of G. vaginalis (OD 600 nm)” value in experiment [2] is “sensitive”. Further, the “inhibition of L. crispatus SJ-3C (OD 600 nm)” value in experiment [3] is on record as “not significantly inhibited”.
On to “NKWGNAVIGAATGATRGVSWCRGFGPWGMTACGLGGAAIGGYLGYKSN (listed as Lactobacillus paragasseri) [GasK7B β, β peptide of two-component bacteriocin gassericin K7B from L. paragasseri K7]”, for which, in experiment [4], the “L. sakei subsp. sakei ATCC 15521 MIC” value is listed as 25 ng/mL. The “L. iners HM-702 MIC” value in experiment [5] (critical dilution assay) is reported as above 100 ng/mL. Besides, the “anti-L. iners activity of purified chromatography fraction” value in experiment [5] was “minor peak of activity”.
As for “NNVNWGSVAGSCGKGAVMEIYFGNPILGCANGAATSLVLQTASGIYKNYQKKR (listed as Lactobacillus paragasseri) [GasK7A β, β peptide of two-component bacteriocin gassericin K7A]”, the “L. sakei subsp. sakei ATCC 15521 MIC” value in experiment [4] is above 4000 ng/mL. Moreover, the “L. iners HM-702 MIC” value in experiment [5] (critical dilution assay) is given as above 4000 ng/mL.
In the case of “RNNWAANIGGAGGATVAGWALGNAVCGPACGFVGAHYVPIAWAGVTAATGGFGKIRK (listed as Lactobacillus paragasseri) [GasK7B α, α peptide of two-component bacteriocin gassericin K7B from L. paragasseri K7]”, the “L. sakei subsp. sakei ATCC 15521 MIC” value in experiment [4] is on record as 1.6 ng/mL. Further, the “L. iners HM-702 MIC” value in experiment [5] (critical dilution assay) is 25 ng/mL. In experiment [5], the “MIC against L. iners” value is on record as 5 nM and the “anti-L. iners activity of purified chromatography fraction” value is “greatest anti-L. iners activity”. Further, in experiment [5] (critical dilution assay, data not shown), the “activity of peptide expressed as MBP fusion in E. coli” value is listed as “comparable to the peptide isolated from K7”.

B1: KNWSVAKCGGTIGTNIAIGAWRGARAGSFFGQPVSVGTGALIGASAGAIGGSVQCVGWLAGGGR (protein, listed as Lactobacillus paragasseri)
chain: KNWSVAKCGGTIGTNIAIGAWRGARAGSFFGQPVSVGTGALIGASAGAIGGSVQCVGWLAGGGR
notes: α peptide of two-component bacteriocin gassericin K7A from L. paragasseri K7
On to B1, for which, in experiment [4], the “L. sakei subsp. sakei ATCC 15521 MIC” value is 9.4 ng/mL. Besides, the “L. iners HM-702 MIC” value in experiment [5] (critical dilution assay) is 75 ng/mL. In addition, the “MIC against L. iners” value in experiment [5] came out at 12 nM.
